Assay: CFA arthritis rats, body weight (Example 8)
Assay type: in vivo, rat
Settings: for body weight: arthritic rats
Description: Five groups of 10 animals (5-weeks old male Lewis rats-LEWIS Lew/Ico, from Charles River Laboratories—Belgium) each were included in this study: Group 1: non arthritic rats/saline (vehicle), i.v. bolus, n=10; Group 2: arthritic rats/saline (vehicle), i.v. bolus, n=10; Group 3: arthritic rats/Indomethacin 3 mg/kg, p.o daily over 10 days, n=10; Group 4: arthritic rats/E3, 1 mg/kg, i.v. bolus, n=10; Group 5: arthritic rats/911, 10 mg/kg, i.v. bolus, n=10. The doses were expressed in terms of free active substance (mg/kg). E3 and 911 were extemporaneously prepared in saline from the stock solution to the desired concentration. E3 1 mg/kg: 3.41 mL of the stock solution (0.88 mg/ml) q.s.p. 15 mL of saline. 911 10 mg/kg: 12 mL of the stock solution (2.5 mg/ml) q.s.p. 15 mL of saline. All diluted solutions (before i.v. injection) were sterilized using a sterile filter unit of 0.20.μm. pH and osmolarity values of diluted solutions were measured before each i.v. injection. Before the first i.v., osmolarity (mosm/L) for saline, E3, and 911 were 278, 269, and 308 respectively; pH for saline, E3, and 911 were 5.93, 6.76, 6.71 respectively. Before the second i.v., osmolarity (mosm/L) for saline, E3, and 911 were 280, 270, and 309 respectively; pH for saline, E3, and 911 were 5.86, 6.72, and 6.59 respectively.
E3 or 911 or saline were administered by i.v. bolus injection on Day 14 and Day 19 after arthritis induction in a coded and random order with a volume of 5 mL/kg. The non arthritic group was given by i.v. bolus injection of saline on Day 14 and Day 19 with a volume of 5 mL/kg. Indomethacin was extemporaneously prepared in 1% methylcellulose. Indomethacin was administered by oral route (p.o.) once daily over 10 days from Day 14 to Day 23 after arthritis induction in a coded and random order with a volume of 10 mL/kg.
The animals were weighed once daily from Day 0 to Day 24 (except during the week-end days before the treatment: D 1, D 2, D 8, D 9, D 10). All measurements were performed between 9:00 and 12:00 am except at D 14 (7:30-9:00 am) and D 24 (7:30-8:00 am).
All results were reported as Mean ±S.E.M. of 10 rats in each group at each time point. Paw volume was expressed in ml calculated from the mean value of the right and left paw volume. Arthritis index was calculated from the sum of the score obtained for each of the 4 paws. The nociceptive response was evaluated by the intensity of the level of vocalization recorded for each animal (mean of 4 values: 2 times/paw) in mV. The percentage inhibition of the nociceptive response was calculated from the mean value of the vehicle-treated arthritic group [(mean value of vehicle-treated arthritic group−mean value of treated arthritic group/mean value of vehicle-treated arthritic group)*100]. Body weight was expressed in grams. Hindpaws (left and right) weight was expressed in grams. Cytokine levels (IL-6, IL-1β, TNF-α and TGF-β1) of each hind paw was expressed in pg/ml. Circulating levels of TGF-β1 was expressed in pg/ml. Radiological index for each parameter (demineralization, erosions, periostal reaction, soft tissue damage, space joint, osteogenesis deformity) and total radiological index (total score) were calculated from the sum of the scores obtained for each parameter. The inter-group significances of the deviations between the values of vehicle-treated group (arthritic rats) and vehicle-treated group (non arthritic rats) were assessed by the Student t test or Mann-Whitney Rank Sum Test when equal variance or normality test failed. The inter-group significances of the deviations between the values of vehicle-treated group (arthritic rats) and E3- and 911- and Indomethacin-treated groups were assessed by the 1-way analysis of variance ANOVA followed by the non-paired Dunnett t test. A probability of P<0.05 was considered as significant. All statistical analysis was performed by the Sigmastat™ software.

[1] = E3 1 mg/kg or 911 10 mg/kg i.v. D14+D19, indomethacin 3 mg/kg/day p.o., D24
[2] = before treatment (dosing starts D14), D3
[3] = before treatment (dosing starts D14), D4
[4] = before treatment (dosing starts D14), D5
[5] = before treatment (dosing starts D14), D6
[6] = before treatment (dosing starts D14), D7
[7] = before treatment (dosing starts D14), D11
[8] = before treatment (dosing starts D14), D12
[9] = before treatment (dosing starts D14), D13
[10] = group later given E3 1 mg/kg or 911 10 mg/kg i.v. D14+D19 or indomethacin 3 mg/kg/day p.o., D0
[11] = D14 (selection day, first dosing)
[12] = E3 1 mg/kg or 911 10 mg/kg i.v. D14+D19, indomethacin 3 mg/kg/day p.o., D15
[13] = E3 1 mg/kg or 911 10 mg/kg i.v. D14+D19, indomethacin 3 mg/kg/day p.o., D16
[14] = E3 1 mg/kg or 911 10 mg/kg i.v. D14+D19, indomethacin 3 mg/kg/day p.o., D17
[15] = E3 1 mg/kg or 911 10 mg/kg i.v. D14+D19, indomethacin 3 mg/kg/day p.o., D18
[16] = E3 1 mg/kg or 911 10 mg/kg i.v. D14+D19, indomethacin 3 mg/kg/day p.o., D19
[17] = E3 1 mg/kg or 911 10 mg/kg i.v. D14+D19, indomethacin 3 mg/kg/day p.o., D20
[18] = E3 1 mg/kg or 911 10 mg/kg i.v. D14+D19, indomethacin 3 mg/kg/day p.o., D21
[19] = E3 1 mg/kg or 911 10 mg/kg i.v. D14+D19, indomethacin 3 mg/kg/day p.o., D22
[20] = E3 1 mg/kg or 911 10 mg/kg i.v. D14+D19, indomethacin 3 mg/kg/day p.o., D23

| Molecule | maximum body weight increase compared to vehicle-treated arthritic group [1] | body weight [2] | body weight [3] | body weight [4] | body weight [5] | body weight [6] | body weight [7] | body weight [8] | body weight [9] | body weight [10] | body weight [11] | body weight [12] | body weight [13] | body weight [14] | body weight [15] | body weight [16] | body weight [17] | body weight [18] | body weight [19] | body weight [20] | other results |
| --- | --- | --- | --- | --- | --- | --- | --- | --- | --- | --- | --- | --- | --- | --- | --- | --- | --- | --- | --- | --- | --- |
| COc1ccc2c(c1)c(CC(=O)O)c(C)n2C(=O)c1ccc(Cl)cc1 [Indomethacin, reference compound] | about 43 g | 217 ± 4 grams | 225 ± 4 grams | 235 ± 4 grams | 239 ± 4 grams | 246 ± 4 grams | 242 ± 7 grams | 235 ± 7 grams | 227 ± 6 grams | 202 ± 3 grams | 224 ± 5 grams | 230 ± 4 grams | 230 ± 5 grams | 231 ± 4 grams | 234 ± 4 grams | 236 ± 4 grams | 241 ± 4 grams | 246 ± 4 grams | 248 ± 5 grams | 253 ± 5 grams | body weight [1]: 261±5 grams |
| E3: humanized, affinity matured anti-NGF antagonist antibody; variable regions SEQ ID NO:1 and 2; human IgG2a (A330P331 to S330S331), kappa (antibody, V domains shown, human IgG2a constant (A330S/P331S) and kappa constant missing) VH: QVQLQESGPGLVKPSETLSLTCTVSGFSLIGYDLNWIRQPPGKGLEWIGIIWGDGTTDYNSAVKSRVTISKDTSKNQFSLKLSSVTAADTAVYYCARGGYWYATSYYFDYWGQGTLVTVS VL: DIQMTQSPSSLSASVGDRVTITCRASQSISNNLNWYQQKPGKAPKLLIYYTSRFHSGVPSRFSGSGSGTDFTFTISSLQPEDIATYYCQQEHTLPYTFGQGTKLEIKRT | about 46 g | 222 ± 3 grams | 230 ± 3 grams | 241 ± 3 grams | 243 ± 3 grams | 249 ± 3 grams | 242 ± 6 grams | 237 ± 6 grams | 230 ± 5 grams | 206 ± 4 grams | 225 ± 5 grams | 223 ± 5 grams | 224 ± 5 grams | 227 ± 4 grams | 232 ± 4 grams | 235 ± 4 grams | 238 ± 4 grams | 245 ± 4 grams | 250 ± 5 grams | 257 ± 5 grams | body weight [1]: 264±5 grams |

Source: patent US20080182978A1, “ANTI-NGF ANTIBODIES AND METHODS USING SAME” (RINAT NEUROSCIENCE CORP, priority 2002, published 2008)
